Results published in ChEMBL document CHEMBL1201862, “PubChem BioAssay data set” (2004).
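Step 1: Grow cells in 96-well plates. Step 2: Expose to compound for 48 hours at 5 concentrations. Step 3: Interpolate endpoints linearly; if unreached, use highest concentration. GI50 = concentration required for 50% inhibition of growth.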 Active and inactive are the calls of the source. No stated cut-off is given here; in the data, active = GI50 up to about 1.1 µM and inactive = higher.

Tests used:
Assay in all cases: NCI-60 cell line screen, 48 h
SR = system: SR
EKVX = system: EKVX
HT-29 = system: HT-29
OVCAR-4 = system: OVCAR-4
SK-MEL-2 = system: SK-MEL-2
M19-MEL = system: M19-MEL
COLO 205 = system: COLO 205
ACHN = system: ACHN
UO-31 = system: UO-31
NCI-H460 = system: NCI-H460
NCI-H226 = system: NCI-H226
NCI-H23 = system: NCI-H23
SK-MEL-5 = system: SK-MEL-5
A549 = system: A549
SF-539 = system: SF-539
OVCAR-3 = system: OVCAR-3
SNB-75 = system: SNB-75
IGROV-1 = system: IGROV-1
HOP-62 = system: HOP-62
CAKI-1 = system: CAKI-1
M14 = system: M14
SF-268 = system: SF-268
RPMI-8226 = system: RPMI-8226
HL-60 = system: HL-60
HCC 2998 = system: HCC 2998
UACC-257 = system: UACC-257
LXFL 529 = system: LXFL 529
TK-10 = system: TK-10
SW-620 = system: SW-620
HOP-92 = system: HOP-92
KM12 = system: KM12
OVCAR-8 = system: OVCAR-8
HCT-116 = system: HCT-116
RXF 393 = system: RXF 393
CCRF-CEM = system: CCRF-CEM
SK-MEL-28 = system: SK-MEL-28
KM-20L2 = system: KM-20L2
UACC-62 = system: UACC-62
SF-295 = system: SF-295
SNB-19 = system: SNB-19
DLD-1 = system: DLD-1
K562 = system: K562
MOLT-4 = system: MOLT-4
DMS-114 = system: DMS-114
SK-OV-3 = system: SK-OV-3
OVCAR-5 = system: OVCAR-5
NCI-H522 = system: NCI-H522
Malme-3M = system: Malme-3M
U-251 = system: U-251
SNB-78 = system: SNB-78

Measured: GI50

COC(=O)C1=C(C)N2CCOC2CC1c1ccccc1 (centres undefined)
inactive: SR 78.9 µM | EKVX > 100 µM | HT-29 > 100 µM | OVCAR-4 > 100 µM | SK-MEL-2 > 100 µM | M19-MEL > 100 µM | COLO 205 > 100 µM | ACHN > 100 µM | UO-31 > 100 µM | NCI-H460 > 100 µM | NCI-H226 > 100 µM | NCI-H23 84.1 µM | SK-MEL-5 > 100 µM | A549 > 100 µM | SF-539 > 100 µM | OVCAR-3 49.5 µM | SNB-75 > 100 µM | IGROV-1 > 100 µM | HOP-62 > 100 µM | CAKI-1 > 100 µM | M14 > 100 µM | SF-268 > 100 µM | RPMI-8226 40.4 µM | HL-60 53.5 µM | HCC 2998 > 100 µM | UACC-257 > 100 µM | LXFL 529 > 100 µM | TK-10 > 100 µM | SW-620 > 100 µM | HOP-92 44.7 µM | KM12 > 100 µM | OVCAR-8 > 100 µM | HCT-116 > 100 µM | RXF 393 48.6 µM | CCRF-CEM 45.4 µM | SK-MEL-28 99.1 µM | KM-20L2 > 100 µM | UACC-62 > 100 µM | SF-295 > 100 µM | SNB-19 > 100 µM | DLD-1 78.3 µM | K562 70.5 µM | MOLT-4 77.4 µM | DMS-114 > 100 µM

CC1=C(C2=C(C)C(=O)c3c(c(C=O)c(O)c(O)c3C(C)C)C2=O)C(=O)c2c(C=O)c(O)c(O)c(C(C)C)c2C1=O [GOSSYPOLONE]
inactive: SR 3.97 µM | HT-29 2.19 µM | OVCAR-4 3.05 µM | SK-MEL-2 1.75 µM | M19-MEL 4.32 µM | COLO 205 3.18 µM | ACHN 2.96 µM | UO-31 2.17 µM | NCI-H460 2.98 µM | NCI-H23 3.72 µM | SF-539 2.69 µM | OVCAR-3 2.31 µM | SNB-75 6.59 µM | IGROV-1 2.69 µM | HOP-62 3.64 µM | M14 1.96 µM | SF-268 2.72 µM | RPMI-8226 2.29 µM | HL-60 2.99 µM | SK-OV-3 3.21 µM | UACC-257 3.99 µM | LXFL 529 3.4 µM | OVCAR-5 1.89 µM | HOP-92 2.53 µM | KM12 2.24 µM | HCT-116 2.36 µM | RXF 393 2.34 µM | NCI-H522 4.67 µM | Malme-3M 4.33 µM | CCRF-CEM 1.82 µM | SK-MEL-28 4.8 µM | KM-20L2 2.21 µM | UACC-62 2.77 µM | SF-295 1.93 µM | U-251 2.64 µM | SNB-19 4.44 µM | K562 2.95 µM | MOLT-4 2.74 µM | SNB-78 2.2 µM | DMS-114 2.23 µM
